Active and inactive are the calls of the source.
What was measured:
[1] = molecular target: T1, Heat shock factor protein 1 (Mus musculus, UniProt P38532); assay: HSF1 potentiators in luciferase reporter cells, confirmation, cell-based, NIH3T3, luminescence, dose retest (AID 435004); assay type: functional;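 also: stress induced by proteasome inhibitor MG132 added 30 min after compound; luciferase reporter driven by HSF1 response element in NIH3T3 cells; actives raise luminescence as potentiators of the MG132 stress response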
T1 sequence (P38532 whole entry): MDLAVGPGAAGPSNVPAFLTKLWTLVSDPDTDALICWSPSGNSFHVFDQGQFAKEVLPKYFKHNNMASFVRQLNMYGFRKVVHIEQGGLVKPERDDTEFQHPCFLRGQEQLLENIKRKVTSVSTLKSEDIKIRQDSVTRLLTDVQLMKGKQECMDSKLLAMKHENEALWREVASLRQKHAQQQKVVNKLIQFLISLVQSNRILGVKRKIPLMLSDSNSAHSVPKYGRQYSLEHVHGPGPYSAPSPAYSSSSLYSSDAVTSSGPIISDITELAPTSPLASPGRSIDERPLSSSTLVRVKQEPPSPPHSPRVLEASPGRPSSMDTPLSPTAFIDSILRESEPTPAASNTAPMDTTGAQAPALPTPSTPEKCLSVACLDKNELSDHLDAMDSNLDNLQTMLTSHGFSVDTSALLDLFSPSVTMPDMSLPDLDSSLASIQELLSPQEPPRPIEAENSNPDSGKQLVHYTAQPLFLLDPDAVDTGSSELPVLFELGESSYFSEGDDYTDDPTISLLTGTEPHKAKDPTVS

[2] = molecular target: T2, Sentrin-specific protease 6 (Homo sapiens, UniProt Q9GZR1); assay type: functional;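 also: Luminescence-based dose-response confirmatory assay of SENP6 inhibition, following up an ultra-high-throughput screen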
T2 sequence (Q9GZR1 whole entry): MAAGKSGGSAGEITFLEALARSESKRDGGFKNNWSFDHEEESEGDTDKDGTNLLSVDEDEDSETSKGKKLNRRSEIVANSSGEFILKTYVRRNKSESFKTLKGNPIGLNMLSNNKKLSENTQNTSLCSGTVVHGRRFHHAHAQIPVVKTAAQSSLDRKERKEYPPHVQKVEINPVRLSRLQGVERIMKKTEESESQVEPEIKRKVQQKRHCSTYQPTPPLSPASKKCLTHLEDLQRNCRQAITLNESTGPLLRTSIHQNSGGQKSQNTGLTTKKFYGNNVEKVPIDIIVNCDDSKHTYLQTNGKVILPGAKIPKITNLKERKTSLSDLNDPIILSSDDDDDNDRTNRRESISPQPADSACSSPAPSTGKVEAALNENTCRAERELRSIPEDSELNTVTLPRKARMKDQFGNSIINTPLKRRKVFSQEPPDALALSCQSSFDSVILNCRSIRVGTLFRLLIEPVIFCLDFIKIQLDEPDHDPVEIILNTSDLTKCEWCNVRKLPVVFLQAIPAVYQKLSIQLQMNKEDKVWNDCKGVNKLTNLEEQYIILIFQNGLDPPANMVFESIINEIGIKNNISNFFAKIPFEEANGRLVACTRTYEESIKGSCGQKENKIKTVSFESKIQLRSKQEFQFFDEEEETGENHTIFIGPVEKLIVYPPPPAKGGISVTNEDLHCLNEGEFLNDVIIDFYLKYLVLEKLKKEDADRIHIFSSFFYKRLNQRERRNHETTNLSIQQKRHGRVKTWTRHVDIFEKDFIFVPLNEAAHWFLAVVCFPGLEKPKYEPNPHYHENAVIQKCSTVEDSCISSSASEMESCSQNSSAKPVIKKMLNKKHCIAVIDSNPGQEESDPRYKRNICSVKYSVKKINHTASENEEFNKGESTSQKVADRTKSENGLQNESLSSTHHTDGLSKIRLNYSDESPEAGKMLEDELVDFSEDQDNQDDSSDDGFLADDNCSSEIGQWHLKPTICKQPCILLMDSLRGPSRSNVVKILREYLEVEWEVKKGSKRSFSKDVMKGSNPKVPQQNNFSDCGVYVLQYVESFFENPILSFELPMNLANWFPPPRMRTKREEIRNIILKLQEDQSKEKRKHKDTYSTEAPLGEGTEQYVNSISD

Nonstructural protein 1 = Nonstructural protein 1 (Influenza A virus, UniProt Q194T2); assay type: functional, Influenza A virus (A/California/07/2009(H1N1))
Nonstructural protein 1, sequence (Q194T2 whole entry): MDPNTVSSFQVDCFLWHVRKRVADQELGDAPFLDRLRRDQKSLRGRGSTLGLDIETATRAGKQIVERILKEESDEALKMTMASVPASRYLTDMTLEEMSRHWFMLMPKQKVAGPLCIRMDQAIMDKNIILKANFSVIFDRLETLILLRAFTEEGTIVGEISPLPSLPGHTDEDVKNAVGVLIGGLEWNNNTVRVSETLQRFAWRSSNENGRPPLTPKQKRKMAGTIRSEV

[3] = molecular target: T3, Tyrosine-protein phosphatase non-receptor type 22 (Homo sapiens, UniProt Q9Y2R2); assay type: functional;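 also: confirmatory dose-response retesting of primary uHTS hits against LYP; potency is for inhibition of phosphatase activity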
T3 sequence (Q9Y2R2 whole entry): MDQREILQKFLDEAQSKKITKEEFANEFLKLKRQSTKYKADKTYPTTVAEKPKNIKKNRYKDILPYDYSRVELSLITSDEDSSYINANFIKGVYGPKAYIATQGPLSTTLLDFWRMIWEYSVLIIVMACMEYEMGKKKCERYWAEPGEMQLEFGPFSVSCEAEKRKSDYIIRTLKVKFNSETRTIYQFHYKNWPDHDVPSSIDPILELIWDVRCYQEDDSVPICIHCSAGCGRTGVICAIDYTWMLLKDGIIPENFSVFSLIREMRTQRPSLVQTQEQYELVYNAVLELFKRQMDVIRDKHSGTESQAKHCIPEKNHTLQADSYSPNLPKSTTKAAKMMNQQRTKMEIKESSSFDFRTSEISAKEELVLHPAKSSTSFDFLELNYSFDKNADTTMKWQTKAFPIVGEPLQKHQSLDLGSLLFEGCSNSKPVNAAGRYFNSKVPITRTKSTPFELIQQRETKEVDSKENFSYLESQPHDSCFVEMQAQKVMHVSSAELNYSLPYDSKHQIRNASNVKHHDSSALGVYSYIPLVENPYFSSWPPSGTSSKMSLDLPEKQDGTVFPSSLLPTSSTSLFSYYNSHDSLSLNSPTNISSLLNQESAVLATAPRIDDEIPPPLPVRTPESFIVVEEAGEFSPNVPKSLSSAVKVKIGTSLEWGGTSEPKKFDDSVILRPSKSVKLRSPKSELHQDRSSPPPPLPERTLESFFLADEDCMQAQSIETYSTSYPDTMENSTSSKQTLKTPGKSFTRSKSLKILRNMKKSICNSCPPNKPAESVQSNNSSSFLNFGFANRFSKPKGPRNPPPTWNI

[4] = molecular target: Lysine-specific demethylase 4C (Homo sapiens, UniProt Q9H3R0); assay: GASC-1 (JMJD2C) histone demethylase inhibitors, dose response, biochemical, DELFIA europium, cherry-picked samples (AID 488835); assay type: functional
Lysine-specific demethylase 4C, sequence (Q9H3R0 whole entry): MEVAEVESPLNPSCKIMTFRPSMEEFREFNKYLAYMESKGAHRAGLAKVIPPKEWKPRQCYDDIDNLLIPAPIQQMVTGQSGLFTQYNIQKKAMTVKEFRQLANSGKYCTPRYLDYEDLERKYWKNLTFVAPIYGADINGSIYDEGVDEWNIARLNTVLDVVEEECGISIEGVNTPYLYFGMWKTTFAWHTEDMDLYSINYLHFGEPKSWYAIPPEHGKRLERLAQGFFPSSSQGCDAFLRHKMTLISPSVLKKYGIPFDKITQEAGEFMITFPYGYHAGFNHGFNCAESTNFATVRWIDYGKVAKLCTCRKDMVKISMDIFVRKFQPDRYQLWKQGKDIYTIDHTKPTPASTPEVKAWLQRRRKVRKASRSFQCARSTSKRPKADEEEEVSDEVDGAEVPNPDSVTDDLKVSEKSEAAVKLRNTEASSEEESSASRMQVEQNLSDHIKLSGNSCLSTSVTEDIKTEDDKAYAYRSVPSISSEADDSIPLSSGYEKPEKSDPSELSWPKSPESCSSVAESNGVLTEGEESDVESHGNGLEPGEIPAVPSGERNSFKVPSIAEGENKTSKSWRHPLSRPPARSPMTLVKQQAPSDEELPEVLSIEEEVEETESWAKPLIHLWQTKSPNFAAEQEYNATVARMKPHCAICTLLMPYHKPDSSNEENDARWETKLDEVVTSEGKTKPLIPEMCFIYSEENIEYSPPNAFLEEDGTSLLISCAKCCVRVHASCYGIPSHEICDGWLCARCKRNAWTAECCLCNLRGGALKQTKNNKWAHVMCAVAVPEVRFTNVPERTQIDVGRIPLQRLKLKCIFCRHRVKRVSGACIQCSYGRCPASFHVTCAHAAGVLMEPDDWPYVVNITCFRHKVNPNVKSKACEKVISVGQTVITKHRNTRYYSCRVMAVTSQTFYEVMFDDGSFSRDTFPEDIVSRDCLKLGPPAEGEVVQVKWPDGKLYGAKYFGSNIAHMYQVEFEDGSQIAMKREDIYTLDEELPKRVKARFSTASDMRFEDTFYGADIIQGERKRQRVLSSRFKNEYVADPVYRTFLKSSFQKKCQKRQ

Cysteine protease ATG4B = molecular target: T4, Cysteine protease ATG4B (Homo sapiens, UniProt Q9Y4P1); assay type: functional;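 also: Fluorescence-based dose-response confirmation assay measuring inhibition of ATG4B activity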
T4 sequence (Q9Y4P1 whole entry): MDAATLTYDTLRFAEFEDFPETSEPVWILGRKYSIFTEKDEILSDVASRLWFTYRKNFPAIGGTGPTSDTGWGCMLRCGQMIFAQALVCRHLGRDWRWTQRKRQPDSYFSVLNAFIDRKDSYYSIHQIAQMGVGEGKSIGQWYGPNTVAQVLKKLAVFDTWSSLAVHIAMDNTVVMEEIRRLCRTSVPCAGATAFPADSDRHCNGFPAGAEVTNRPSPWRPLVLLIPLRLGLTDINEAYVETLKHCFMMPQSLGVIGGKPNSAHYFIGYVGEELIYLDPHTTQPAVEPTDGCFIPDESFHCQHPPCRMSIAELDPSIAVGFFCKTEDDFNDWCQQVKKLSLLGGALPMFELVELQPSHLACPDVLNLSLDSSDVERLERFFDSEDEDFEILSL

## Oc1nc(Nc2ccccc2Cl)cc2ccccc12
[1]
  EC50: 136 µM (active)
[2]
  IC50: 3.14 µM (active)

## O=C1C=C(c2c(O)ccc3ccccc23)c2ccccc2C1=O
Nonstructural protein 1
  IC50: 46.5 µM (active)

## Cc1nc2c(=O)n(C)c(=O)nc-2n(C)n1
[3]
  IC50: < 1.24 µM (active)
[4]
  AC50: 0.425 µM (active)
Cysteine protease ATG4B
  IC50: 3.73 µM (active)
